Measurements reported in patent US10702592B2, “Peptides and combination of peptides for use in immunotherapy against NHL and other cancers” (Immatics Biotechnologies GmbH, priority 2016, dated 2020).

What was measured:
CD8+ T cells = experiment: In vitro T-cell priming immunogenicity assay (aAPC with pMHC and anti-CD28, multimer staining); assay type: cell-based, human; conditions: for Wells positive [%]: HLA-A*02 restricted peptides, percentage of positive wells and donors (among evaluable); for in vitro immunogenicity, wells: CD8+ T cells of healthy HLA-A*02 donors, three stimulation cycles, multimer readout
Text: In order to obtain information regarding the immunogenicity of the TUMAPs of the present invention, the inventors performed investigations using an in vitro T-cell priming assay based on repeated stimulations of CD8+ T cells with artificial antigen presenting cells (aAPCs) loaded with peptide/MHC complexes and anti-CD28 antibody.
In order to perform in vitro stimulations by artificial antigen presenting cells loaded with peptide-MHC complex (pMHC) and anti-CD28 antibody, the inventors first isolated CD8+ T cells from fresh HLA-A*02 leukapheresis products via positive selection using CD8 microbeads (Miltenyi Biotec, Bergisch-Gladbach, Germany) of healthy donors obtained from the University clinics Mannheim, Germany, after informed consent.
PBMCs and isolated CD8+ lymphocytes were incubated in T-cell medium (TCM) until use consisting of RPMI-Glutamax (Invitrogen, Karlsruhe, Germany) supplemented with 10% heat inactivated human AB serum (PAN-Biotech, Aidenbach, Germany), 100 U/ml Penicillin/100 μg/ml Streptomycin (Cambrex, Cologne, Germany), 1 mM sodium pyruvate (CC Pro, Oberdorla, Germany), 20 μg/ml Gentamycin (Cambrex). 2.5 ng/ml IL-7 (PromoCell, Heidelberg, Germany) and 10 U/ml IL-2 (Novartis Pharma, Nurnberg, Germany) were also added to the TCM at this step.
Generation of pMHC/anti-CD28 coated beads, T-cell stimulations and readout was performed in a highly defined in vitro system using four different pMHC molecules per stimulation condition and 8 different pMHC molecules per readout condition.
The purified co-stimulatory mouse IgG2a anti human CD28 Ab 9.3 (Jung et al., 1987) was chemically biotinylated using Sulfo-N-hydroxysuccinimidobiotin as recommended by the manufacturer (Perbio, Bonn, Germany). Beads used were 5.6 μm diameter streptavidin coated polystyrene particles (Bangs Laboratories, Illinois, USA).
800.000 beads/200 μl were coated in 96-well plates in the presence of 4×12.5 ng different biotin-pMHC, washed and 600 ng biotin anti-CD28 were added subsequently in a volume of 200 μl. Stimulations were initiated in 96-well plates by co-incubating 1×10^6 CD8+ T cells with 2×10^5 washed coated beads in 200 μl TCM supplemented with 5 ng/ml IL-12 (PromoCell) for 3 days at 37° C. Half of the medium was then exchanged by fresh TCM supplemented with 80 U/ml IL-2 and incubating was continued for 4 days at 37° C. This stimulation cycle was performed for a total of three times. For the pMHC multimer readout using 8 different pMHC molecules per condition, a two-dimensional combinatorial coding approach was used as previously described (Andersen et al., 2012) with minor modifications encompassing coupling to 5 different fluorochromes. Finally, multimeric analyses were performed by staining the cells with Live/dead near IR dye (Invitrogen, Karlsruhe, Germany), CD8-FITC antibody clone SK1 (BD, Heidelberg, Germany) and fluorescent pMHC multimers. For analysis, a BD LSRII SORP cytometer equipped with appropriate lasers and filters was used. Peptide specific cells were calculated as percentage of total CD8+ cells. Evaluation of multimeric analysis was done using the FlowJo software (Tree Star, Oregon, USA). In vitro priming of specific multimer+CD8+ lymphocytes was detected by comparing to negative control stimulations.

HLA-A*02:01 = HLA-A*02:01 (Homo sapiens, UniProt P04439, D140Y/D185E/D98H/E176V/E277Q/G131W/G231S/I119V/I121R/I166T/I218V/L300P/L318F/N151K/N90K/P208A/P217A/Q86G/Q94H/R138H/R169H/T345S); experiment: MHC binding assay (UV-ligand exchange, beta2m ELISA); conditions: binding to HLA-A*02:01, UV-ligand exchange
Outline: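 Exchange yield is an ELISA read-out: complexes diluted 100-fold, captured on streptavidin plates, detected with HRP anti-β2m and TMB at 450 nm. Standard curve from refolded HLA-A*02:01/MLA-001 (15-500 ng/ml); complexes made by UV-triggered displacement of a photolabile ligand by test peptide.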

Substance	Wells positive [%] (CD8+ T cells)	Peptide exchange (MHC class I binding score, peptide exchange yield) (HLA-A*02:01)	in vitro immunogenicity, wells (CD8+ T cells)
1 (LLSGQLPTI; listed as Homo sapiens) [compound 1]	“+++” (50% - 69% = +++)	“+++” (≥50 = +++)	–
2 (LLSEETPSA; listed as Homo sapiens) [compound 2]	“+” (<20% = +)	“+++” (≥50 = +++)	–
3 (LTIDTQYYL; listed as Homo sapiens) [compound 3]	“+” (<20% = +)	“+++” (≥50 = +++)	–
5 (VLQGLTFTL; listed as Homo sapiens) [compound 5]	“+++” (50% - 69% = +++)	“+++” (≥50 = +++)	–
7 (NLLGMIFSM; listed as Homo sapiens) [compound 7]	“++++” (≥70% = ++++)	“++++” (≥75% = ++++)	–
8 (ALYAVIEKA; listed as Homo sapiens) [compound 8]	“+” (<20% = +)	“+++” (≥50 = +++)	–
9 (FLLDLDPLL; listed as Homo sapiens) [compound 9]	“++” (20% - 49% = ++)	“+++” (≥50 = +++)	–
12 (GLLLLVPLL; listed as Homo sapiens) [compound 12]	“+++” (50% - 69% = +++)	“+++” (≥50 = +++)	–
13 (HLVPASWKL; listed as Homo sapiens) [compound 13]	“+++” (50% - 69% = +++)	“+++” (≥50 = +++)	–
17 (VIIPLLSSV; listed as Homo sapiens) [compound 17]	“++” (20% - 49% = ++)	“+++” (≥50 = +++)	–
19 (VLEAILPLV; listed as Homo sapiens) [compound 19]	“+” (<20% = +)	“++++” (≥75% = ++++)	–
21 (ALFKEAYSL; listed as Homo sapiens) [compound 21]	“+” (<20% = +)	“+++” (≥50 = +++)	–
22 (ALKKHLTSV; listed as Homo sapiens) [compound 22]	“++++” (≥70% = ++++)	“+++” (≥50 = +++)	–
24 (AVLGFSFRL; listed as Homo sapiens) [compound 24]	“++++” (≥70% = ++++)	“+++” (≥50 = +++)	–
25 (FLDTSNQHLL; listed as Homo sapiens) [compound 25]	“+” (<20% = +)	“+++” (≥50 = +++)	–
26 (FLGSFIDHV; listed as Homo sapiens) [compound 26]	“+” (<20% = +)	“+++” (≥50 = +++)	–
27 (FLNQESFDL; listed as Homo sapiens) [compound 27]	“+” (<20% = +)	“+++” (≥50 = +++)	–
28 (FLSNANPSL; listed as Homo sapiens) [compound 28]	“++++” (≥70% = ++++)	“+++” (≥50 = +++)	–
29 (ILSDVTQGL; listed as Homo sapiens) [compound 29]	“+” (<20% = +)	“+++” (≥50 = +++)	–
30 (ILSTLDVEL; listed as Homo sapiens) [compound 30]	“++” (20% - 49% = ++)	“+++” (≥50 = +++)	–
33 (LLANIVPIAMLV; listed as Homo sapiens) [compound 33]	“+” (<20% = +)	“++++” (≥75% = ++++)	–
35 (SLSSERYYL; listed as Homo sapiens) [compound 35]	“++++” (≥70% = ++++)	“+++” (≥50 = +++)	–

Substance	Wells positive [%] (CD8+ T cells)	Peptide exchange (MHC class I binding score, peptide exchange yield) (HLA-A*02:01)	in vitro immunogenicity, wells (CD8+ T cells)
36 (VILDIPLLFET; listed as Homo sapiens) [compound 36]	“++” (20% - 49% = ++)	“+++” (≥50 = +++)	–
37 (VLGNALEGV; listed as Homo sapiens) [compound 37]	“+” (<20% = +)	“+++” (≥50 = +++)	–
40 (FLNSVIVDL; listed as Homo sapiens) [compound 40]	“+++” (50% - 69% = +++)	“++++” (≥75% = ++++)	–
41 (ILASIFETV; listed as Homo sapiens) [compound 41]	“+++” (50% - 69% = +++)	“++++” (≥75% = ++++)	–
42 (YLQDLVERA; listed as Homo sapiens) [compound 42]	“+++” (50% - 69% = +++)	“++++” (≥75% = ++++)	–
43 (ALLEGVKNV; listed as Homo sapiens) [compound 43]	“++” (20% - 49% = ++)	“+++” (≥50 = +++)	–
308 (SLLDQIPEM; listed as Homo sapiens) [compound 308]	–	“+++” (≥50 = +++)	–
309 (SLSFVSPSL; listed as Homo sapiens) [compound 309]	–	“+++” (≥50 = +++)	–
310 (VMAEAPPGV; listed as Homo sapiens) [compound 310]	–	“+++” (≥50 = +++)	–
311 (YLHRQVAAV; listed as Homo sapiens) [compound 311]	–	“+++” (≥50 = +++)	–
314 (LIDDKGTIKL; listed as Homo sapiens) [compound 314]	–	“++” (≥20% = ++)	–
319 (SLYKGLLSV; listed as Homo sapiens) [compound 319]	–	–	++ (20% - 49% = ++)
320 (LLWGNLPEI; listed as Homo sapiens) [compound 320]	–	–	++ (20% - 49% = ++)
321 (KLLAVIHEL; listed as Homo sapiens) [compound 321]	–	–	++ (20% - 49% = ++)
322 (TLTNIIHNL; listed as Homo sapiens) [compound 322]	–	–	++ (20% - 49% = ++)
323 (ILVDWLVQV; listed as Homo sapiens) [compound 323]	–	–	++ (20% - 49% = ++)
324 (LLYDAVHIV; listed as Homo sapiens) [compound 324]	–	–	++ (20% - 49% = ++)
325 (FLFVDPELV; listed as Homo sapiens) [compound 325]	–	–	+++ (50% - 69% = +++)
326 (KLTDVGIATL; listed as Homo sapiens) [compound 326]	–	–	++++ (≥70% = ++++)
327 (MLFGHPLLVSV; listed as Homo sapiens) [compound 327]	–	–	++ (20% - 49% = ++)
328 (ILFPDIIARA; listed as Homo sapiens) [compound 328]	–	–	++++ (≥70% = ++++)
